Measurements published in US11331290B2, “Niclosamide for the treatment of cancer metastasis” (Max-Delbrück-Centrum für Molekulare Medizin in der …, priority 2011, dated 2022).

Molecular target: T1, CTNNB1/TCF complex (Homo sapiens, UniProt P35222, DEL45-45)
T1 construct: endogenous in cells; host or cells: HCT116 nuclear extract
T1 sequence (P35222 1-781): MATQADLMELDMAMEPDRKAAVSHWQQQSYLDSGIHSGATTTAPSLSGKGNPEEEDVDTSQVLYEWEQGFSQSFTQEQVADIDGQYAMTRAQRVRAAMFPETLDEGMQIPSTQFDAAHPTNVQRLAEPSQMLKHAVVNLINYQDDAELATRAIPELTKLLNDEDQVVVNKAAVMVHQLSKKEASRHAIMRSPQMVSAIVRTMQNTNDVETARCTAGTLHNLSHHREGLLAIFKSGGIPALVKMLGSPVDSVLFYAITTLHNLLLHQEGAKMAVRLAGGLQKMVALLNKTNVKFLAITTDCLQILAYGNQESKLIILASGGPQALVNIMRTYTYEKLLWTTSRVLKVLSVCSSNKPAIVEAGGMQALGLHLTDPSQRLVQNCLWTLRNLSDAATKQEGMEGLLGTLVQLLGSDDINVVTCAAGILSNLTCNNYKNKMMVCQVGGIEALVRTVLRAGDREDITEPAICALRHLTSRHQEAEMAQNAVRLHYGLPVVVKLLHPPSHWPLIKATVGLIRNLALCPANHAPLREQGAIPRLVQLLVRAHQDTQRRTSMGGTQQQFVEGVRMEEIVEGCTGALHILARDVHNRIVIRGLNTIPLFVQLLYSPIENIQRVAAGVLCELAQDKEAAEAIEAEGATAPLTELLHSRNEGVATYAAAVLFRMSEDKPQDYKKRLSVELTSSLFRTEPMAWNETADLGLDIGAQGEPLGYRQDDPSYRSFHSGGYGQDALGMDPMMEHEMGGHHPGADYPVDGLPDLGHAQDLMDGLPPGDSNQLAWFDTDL
T1 sequence (P35222 with tags, fused parts or gaps DEL45-45): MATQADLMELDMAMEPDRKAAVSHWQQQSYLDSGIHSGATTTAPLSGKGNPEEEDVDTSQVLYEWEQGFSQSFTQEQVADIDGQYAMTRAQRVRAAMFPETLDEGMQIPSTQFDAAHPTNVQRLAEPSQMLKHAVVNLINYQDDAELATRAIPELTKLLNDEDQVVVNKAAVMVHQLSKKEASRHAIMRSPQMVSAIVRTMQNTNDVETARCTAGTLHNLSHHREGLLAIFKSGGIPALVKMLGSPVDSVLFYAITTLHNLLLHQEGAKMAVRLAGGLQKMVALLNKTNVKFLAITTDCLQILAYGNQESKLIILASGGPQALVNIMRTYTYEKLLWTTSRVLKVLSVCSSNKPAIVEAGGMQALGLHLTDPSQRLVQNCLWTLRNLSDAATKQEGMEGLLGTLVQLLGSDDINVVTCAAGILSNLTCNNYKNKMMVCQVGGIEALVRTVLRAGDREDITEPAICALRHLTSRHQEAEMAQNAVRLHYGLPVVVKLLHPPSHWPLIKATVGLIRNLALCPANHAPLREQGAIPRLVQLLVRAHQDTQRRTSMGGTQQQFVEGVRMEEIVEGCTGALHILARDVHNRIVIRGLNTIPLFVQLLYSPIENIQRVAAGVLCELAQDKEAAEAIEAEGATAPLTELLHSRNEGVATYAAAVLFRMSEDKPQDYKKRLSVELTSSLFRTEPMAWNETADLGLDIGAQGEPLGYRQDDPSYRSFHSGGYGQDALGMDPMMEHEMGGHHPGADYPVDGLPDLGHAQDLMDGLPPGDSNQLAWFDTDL
Experiment: Electrophoretic mobility shift assay (EMSA), TCF-binding site of the S100A4 promoter
Format: cell-based
Protocol: Electrophoretic mobility shift assay (EMSA) was performed as described earlier (4). 5×10^6 HCT116 cells were plated into a 10 cm culture dish and were given 15 hour to attach to the bottom of the dish. Cells were treated with 0.1, 0.3, 0.6 or 1 μM niclosamide or the respective amount of DMSO for 24 hours. For each condition 5 μg nuclear extracted protein was incubated 30 minutes at room temperature with 0.05% w/v poly dI⋅dC, 0.5 mM Tris, 0.05 mM EDTA, 2.5% v/v glycerol, 0.2% v/v NP-40, 5 mM MgCl2 and double-stranded biotinylated oligonucleotides (sense 5′-[…]-3′, antisense 3′-[…] T-5′) encompassing the TCF-binding site of the S100A4 promoter. For supershift 1.25 μg monoclonal CTNNB1 antibody (BD Biosciences) was added. […]
For WNT pathway analysis the following cells were applied: HCT116 cells (heterozygous for gain-of-function-mutated CTNNB1; wt/mut), HAB-68mut cells (deletion mutant of HCT116, expressing only gain-of-function-mutated CTNNB1: −/mut) and HAB-92 wt cells (deletion mutant of HCT116, expressing only wild-type CTNNB1: wt/−). […] Reporter gene expression was determined by luciferase activity measurement. […] S100A4 expression was analyzed by qRT-PCR and immunoblot. […] Cells were treated with 1 μM niclosamide for 24 hours and cell migration was determined by Boyden chamber assay. […] Differences were analyzed by Student's t test (n.s.; not statistically significant). […]

O=C(Nc1ccc([N+](=O)[O-])cc1Cl)c1cc(Cl)ccc1O [niclosamide, 2′,5-dichloro-4′-nitrosalicylanilide]
supershift with monoclonal anti-CTNNB1 (nuclear extracts from 1 μM niclosamide-treated HCT116 cells): No supershift could be detected | CTNNB1/TCF/oligo complex (nuclear extracts of HCT116 cells, increasing concentrations (0.1, 0.3, 0.6 or 1 μM)): interrupted the CTNNB1/TCF/oligo complex in a concentration-dependent manner
